Counter-ions that a name gives are not always drawn. Like-named read-outs stand apart in the source and are kept apart here. No end group written: not given here.
Tests used:
[1] = molecular target: T1, purified prolyl oligopeptidase (Homo sapiens, UniProt P48147); assay: biochemical
T1 construct: from tissue; host or cells: human blood cells: platelets or mononuclear cells, not specified
T1 sequence (P48147 1-710): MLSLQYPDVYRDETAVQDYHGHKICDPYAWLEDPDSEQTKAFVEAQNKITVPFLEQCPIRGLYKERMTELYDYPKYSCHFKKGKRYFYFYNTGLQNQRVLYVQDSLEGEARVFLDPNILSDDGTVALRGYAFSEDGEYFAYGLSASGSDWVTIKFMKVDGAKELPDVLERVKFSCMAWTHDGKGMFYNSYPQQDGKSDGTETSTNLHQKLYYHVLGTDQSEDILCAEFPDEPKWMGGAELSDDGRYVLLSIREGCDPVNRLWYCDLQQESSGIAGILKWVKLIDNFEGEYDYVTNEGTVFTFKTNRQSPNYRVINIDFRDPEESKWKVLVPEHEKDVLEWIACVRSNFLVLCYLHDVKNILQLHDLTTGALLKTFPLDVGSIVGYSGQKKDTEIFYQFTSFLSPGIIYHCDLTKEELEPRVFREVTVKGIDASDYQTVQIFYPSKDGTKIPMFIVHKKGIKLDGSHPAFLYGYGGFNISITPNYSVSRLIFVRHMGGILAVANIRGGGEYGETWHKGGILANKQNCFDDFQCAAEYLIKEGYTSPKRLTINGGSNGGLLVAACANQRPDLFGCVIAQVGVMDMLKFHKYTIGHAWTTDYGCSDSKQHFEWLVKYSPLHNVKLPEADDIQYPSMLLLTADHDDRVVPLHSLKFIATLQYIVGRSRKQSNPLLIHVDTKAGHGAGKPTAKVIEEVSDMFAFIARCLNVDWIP
Description: (§1) The remaining activity was determined by adding 5 μl substrate (Z-Gly-Pro-AMC, 5.6 mM) and measurement of the fluorescence at λex 370 nm, λem 440 nm after a further 20 min incubation at 37° C. The inhibitors were dissolved in methanol and control experiments were performed to correct for the presence of the solvents used. The IC50 value was derived from a plot, joining the residual activity and the dosis of the respective compounds (at least eight concentrations tested). The Ki values were derived from a direct linear plot (Dixon-plot). The measurements were performed in triplicate and only those lines having a correlation coefficient of at least 0.95 were used for determination of the Ki value.
Several peptides (cfr. table) were incubated with purified prolyl oligopeptidase. The compounds were dissolved in H2 O. The IC50 value was determined as previously described apart from the preincubation which was deleted. […]

DPPIV [2] = molecular target: T2, DPPIV (Homo sapiens, UniProt P27487); assay: biochemical; format: biochemical
T2 construct: from tissue; host or cells: prostasomes from human seminal plasma, purified on immobilized adenosine deaminase
T2 sequence (P27487 whole entry): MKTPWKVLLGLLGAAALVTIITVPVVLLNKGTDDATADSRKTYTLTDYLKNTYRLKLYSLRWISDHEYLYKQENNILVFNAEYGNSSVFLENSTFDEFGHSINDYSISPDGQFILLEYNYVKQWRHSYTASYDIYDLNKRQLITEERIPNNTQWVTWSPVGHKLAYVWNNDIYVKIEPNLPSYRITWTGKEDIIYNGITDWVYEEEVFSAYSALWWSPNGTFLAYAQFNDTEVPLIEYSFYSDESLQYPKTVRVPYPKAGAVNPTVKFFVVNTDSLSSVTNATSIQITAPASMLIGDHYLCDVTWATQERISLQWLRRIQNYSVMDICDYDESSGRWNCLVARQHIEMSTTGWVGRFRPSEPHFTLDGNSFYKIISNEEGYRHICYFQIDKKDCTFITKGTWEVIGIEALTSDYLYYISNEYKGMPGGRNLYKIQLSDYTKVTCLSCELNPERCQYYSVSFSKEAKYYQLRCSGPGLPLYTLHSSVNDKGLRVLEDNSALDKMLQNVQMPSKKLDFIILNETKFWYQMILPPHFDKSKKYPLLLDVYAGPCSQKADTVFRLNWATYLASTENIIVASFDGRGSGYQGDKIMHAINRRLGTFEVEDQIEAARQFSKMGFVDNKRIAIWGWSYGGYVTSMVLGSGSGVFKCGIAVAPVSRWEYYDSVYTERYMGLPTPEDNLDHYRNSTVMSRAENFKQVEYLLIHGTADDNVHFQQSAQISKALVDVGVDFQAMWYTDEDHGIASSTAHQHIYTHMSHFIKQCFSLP
Description: (§2) All enzymatic reactions were carried out in 50 mM Tris.HCl buffer pH 8.3 at 37° C. with Gly-Pro-4-Me-2-naphtylamine.HCl as substrate. One activity unit is defined as the amount of enzyme which catalyzes the conversion of 1 micromole of substrate per minute at 37° C. All experiments were carried out with the same stock solution of DPPIV containing 1.8 units/ml. The enzyme was diluted (usually 1/200 or 1/500) in reaction buffer immediately before the experiment to a suitable concentration so as not to consume more that 10% of the substrate during the incubation period.
The remaining activity was determined by adding 5 microliter of a 1 mM solution of Gly-Pro-4-Me-2-naphtylamine.HCl. The reaction mixture containing enzyme, substrate and inhibitor was incubated for 20 min at 37° C. The reaction was stopped by addition of 0.5 ml 100 mM citrate pH 4.0. The fluorescence of the sample was measured within 2 h after quenching. The measurements were done in duplicate and corrected for background fluorescence using a blanc with exactly the same composition except that the citrate solution was added before the substrate.

[3] = molecular target: T3, purified human platelet prolyl oligopeptidase (Homo sapiens, UniProt P48147); assay: In vitro inhibition of PEP; format: biochemical; details: for IC50: 20 min preincubation at 37° C., substrate Z-Gly-Pro-AMC; for Ki: Dixon-plot
T3 construct: purified human platelet prolyl oligopeptidase; from tissue; host or cells: human thrombocytes (platelets)
T3 sequence (P48147 1-710): T1 sequence (P48147 1-710)
Description: as §1

[4] = Functional stability of DPPIV inhibitors in the reaction medium (buffer); format: physicochemical; details: 50 mM TRIS buffer pH 8.3, 37° C.
Description: (§3) To determine the functional stability of the inhibitors in the reaction medium, a 10 mM stock solution in DMSO was diluted 50-fold in 50 mM TRIS buffer pH 8.3 and incubated at 37° C. To determine the functional stability in plasma, a 50 mM stock solution in DMSO was diluted 50-fold in fresh or freshly frozen citrated plasma from a healthy donor and incubated at 37° C. At specific time intervals an aliquot was withdrawn, added to an equal volume of DPPIV diluted in buffer or to an equal volume of plasma and the kinetics of inactivation were determined as described under b). The reduction in observed pseudo-first order rate constant is a measure for the amount of functional inhibitor lost during the incubation and allowed to estimate the half-life of the inhibitors in buffer and plasma. The following table lists the results.

[5] = Functional stability of DPPIV inhibitors in human citrated plasma; format: in vitro ADME; details: 37° C.
Description: as §3

DPPIV [6] = molecular target: T2, DPPIV; assay: Stability of the inhibitor-DPPIV adduct; format: biochemical; details: DPPIV incubated with 0.5 mM inhibitor 1 hour, excess removed by gel filtration
Description: The phosphorylated enzyme is expected to hydrolyze slowly by action of solvent or nucleophilic groups on the enzyme.
The stability of the adduct was determined as follows. […] Excess inhibitor was removed by gel filtration on a PD 10 column (Pharmacia Biotech, Uppsala, Sweden) previously equilibrated with 50 mM Tris.HCl buffer, pH 8.3.

DPPIV [7] = molecular target: T2, DPPIV; format: biochemical; details: inhibitor 0.1 or 0.5 mM, 37° C.; k+ = kobs/[I]o
Description: as §2
The kinetics of inactivation were measured by adding an appropriate concentration of inhibitor (0.1 or 0.5 mM) to 0.5 ml of enzyme in reaction buffer at 37° C. and determining the activity at various time points after mixing. To achieve this, 25 microliter samples were withdrawn and diluted […] in 2 mM Gly-Pro-4-Me-2-naphthylamine.HCl. The reaction was quenched with citrate after 10 to 15 min and the fluorescence was determined. The dilution in an excess of substrate reduced the velocity of inhibitor binding by a factor of 20. The decrease in fluorescence with time was fitted with the equation of a monoexponential decay yielding the pseudo-first order rate constant for binding (kobs) in the exponent. The second order rate constant (k+) was calculated as follows: k+ =kobs /[I]o where [I]o is the concentration of inhibitor in the incubation mixture.

[8] = peptides dissolved in H2O, no preincubation, read-out: IC50
[9] = 1 hour preincubation at room temperature, substrate Gly-Pro-4-Me-2-naphtylamine.HCl, Tris.HCl pH 8.3, 37° C., inhibitory diastereoisomer unless marked *, read-out: IC50

## CC[C@H](C)[C@H](NC(=O)[C@H](Cc1ccc(O)cc1)NC(=O)[C@@H](NC(=O)[C@H](CCCNC(=N)N)NC(=O)[C@@H](N)CC(=O)O)C(C)C)C(=O)N[C@@H](Cc1c[nH]cn1)C(=O)N1CCC[C@H]1C(=O)O [Angiotensin (1-7)]
[1]; [8]
  IC50: 750 µM

## CC[C@H](C)[C@H](N)C(=O)N1CCC(F)C1.O=C(O)C(F)(F)F (mixture of isomers) [Ile-3-Fluoro-pyrrolidine, 1-(L-Isoleucyl)-3(R,S)-fluoropyrrolidine trifluoroacetate]
DPPIV [2]
  inhibitory activity on DPPIV (in words): particularly active inhibitor

## O=C(NC(Cc1ccccc1)C(=O)N1CCC1)OCc1ccccc1 (stereo not drawn) [Z-Phe-azetidine]
[3]
  IC50: 30 µM

## Cl.N[C@@H](Cc1ccc(F)cc1)C(=O)N1CCC[C@H]1P(=O)(Oc1ccccc1)Oc1ccccc1 [pF-Phe-Pro^P -(OPh)2, Diphenyl (R)-1-[(S)-p-fluorophenylalanyl]pyrrolidine-2-phosphonate hydrochloride]
DPPIV [2]
  IC50: 100 µM
[4]
  t1/2 in buffer: 8.9 ± 0.1 h
[5]
  t1/2 in plasma: 0.7 ± 0.1 h
DPPIV [6]
  stability of the adduct at room temperature: > 4 weeks

## N[C@@H](CC1CCCCC1)C(=O)N1CCC[C@H]1P(=O)(Oc1ccccc1)Oc1ccccc1 [Cyclohexylalanine-Pro^P -(OPh)2, Diphenyl (R)-1-[(S)-cyclohexylalanyl]pyrrolidine-2-phosphonate hydrochloride]
[4]
  t1/2 in buffer: 4.5 ± 0.8 h
[5]
  t1/2 in plasma: 0.3 ± 0.1 h

## Cl.Cl.N=C(N)NCCC[C@H](N)C(=O)N1CCCC1P(=O)(Oc1ccccc1)Oc1ccccc1 (stereo partly drawn) [(S)-Arg-(S,R)-Pro^P (OPh)2, Diphenyl (S,R)-1-[(S)-arginyl]pyrrolidine-2-phosphonate dihydrochloride]
[4]
  t1/2 in buffer: 2.6 ± 0.3 h
[5]
  t1/2 in plasma: 1.9 ± 0.2 h

## Cl.N[C@@H](Cc1ccccc1)C(=O)N1CCC[C@H]1P(=O)(Oc1ccccc1)Oc1ccccc1 [Phe-Pro^P -(OPh)2, Diphenyl (R)-1-[(S)-phenylalanyl]pyrrolidine-2-phosphonate hydrochloride]
DPPIV [2]
  IC50: 70 µM
[4]
  t1/2 in buffer: 6 ± 1 h
[5]
  t1/2 in plasma: 0.7 ± 0.1 h
DPPIV [6]
  stability of the adduct at room temperature: > 3 weeks

## RPPGFSPFR [Bradykinin]
[1]
  IC50: 7 µM

## CC[C@H](C)[C@H](N)C(=O)N1CCCC1P(=O)(Oc1ccccc1)Oc1ccccc1.Cl (stereo partly drawn) [Ile-Pro-^P -(OPh)2, Diphenyl (S,R)-1-[(S)-isoleucinyl]pyrrolidine-2-phosphonate hydochloride]
DPPIV [2]; [9]
  IC50: 350 µM
DPPIV [7]
  K+ (second order rate constant): 2.3 M⁻¹ s⁻¹
DPPIV [6]
  stability of the adduct at room temperature: > 3 weeks

## CC[C@H](C)[C@H](N)C(=O)N1CCC[C@H]1P(=O)(Oc1ccccc1)Oc1ccccc1.Cl [(S)-Ile-(R)-Pro^P (OPh)2, Diphenyl (R)-1-[(S)-isoleucinyl]pyrrolidine-2-phosphonate hydochloride]
[4]
  t1/2 in buffer: 10 ± 5 h
[5]
  t1/2 in plasma: 1.4 ± 0.9 h

## Cl.N[C@@H](Cc1ccccc1)C(=O)N1CCC[C@@H]1P(=O)(Oc1ccccc1)Oc1ccccc1 [AB22, Diphenyl (S)-1-[(S)-phenaylalyl]pyrrolidine-2-phosphonate hydrochloride]
DPPIV [2]
  inhibitory activity on DPPIV (in words): inactive

## O=C(C1CSCN1C(=O)OCc1ccccc1)N1CCC1 (stereo not drawn) [Z-thiopro-azetidine]
[3]
  IC50: 1.8 µM
  Ki: 5 µM

## O=C([C@@H]1CCCN1C(=O)OCc1ccccc1)N1CCC(F)C1 (stereo partly drawn) [Z-Pro-3-fluoropyrrolidine, 1-[N-Benzyloxycarbonyl-L-propyl]-3(R,S)-fluoropyrrolidine]
[3]
  inhibitory activity on PEP (in words): particularly active inhibitor
  IC50: 0.45 µM
  Ki: 0.1 µM

## C[C@H](N)C(=O)N1CCCC1P(=O)(Oc1ccccc1)Oc1ccccc1.Cl (stereo partly drawn) [Ala-Pro-(OPh)2, Diphenyl (S,R)-1-[(S)-alanyl]pyrrolidine-2-phosphonate hydrochloride]
DPPIV [2]; [9]
  IC50: 2000 µM
DPPIV [7]
  K+ (second order rate constant): 0.7 M⁻¹ s⁻¹
DPPIV [6]
  stability of the adduct at room temperature: > 4 weeks

## O=C(C1CCCN1C(=O)OCc1ccccc1)N1CCC1 (stereo not drawn) [Z-Pro-azetidine]
[3]
  IC50: 3 µM
  Ki: 2.5 µM

## CC[C@H](C)[C@H](NC(=O)[C@H](Cc1ccc(O)cc1)NC(=O)[C@@H](NC(=O)[C@H](CCCNC(=N)N)NC(=O)[C@@H](N)CC(=O)O)C(C)C)C(=O)N[C@@H](Cc1cnc[nH]1)C(=O)N1CCC[C@H]1C(=O)N[C@@H](Cc1ccccc1)C(=O)O [Angiotensin II]
[1]; [8]
  IC50: 25 µM

## CC(C)(C)Oc1ccc(C[C@H](N)C(=O)N2CCCC2P(=O)(Oc2ccccc2)Oc2ccccc2)cc1 (stereo partly drawn) [O-tbutyl-Tyr-Pro^P -(OPh)2]
DPPIV [2]; [9]
  IC50: 1000 µM
DPPIV [7]
  K+ (second order rate constant): 0.5 M⁻¹ s⁻¹

## CSCC[C@H](NC(=O)[C@H](CC(C)C)NC(=O)CNC(=O)[C@H](Cc1ccccc1)NC(=O)[C@H](Cc1ccccc1)NC(=O)[C@H](CCC(N)=O)NC(=O)[C@H](CCC(N)=O)NC(=O)[C@@H]1CCCN1C(=O)[C@H](CCCCN)NC(=O)[C@@H]1CCCN1C(=O)[C@@H](N)CCCN=C(N)N)C(N)=O [Substance P]
[1]
  IC50: 163 µM
